What is called IC50 is the midpoint of a concentration-inhibition curve. Low values mean inhibition by little substance, high ones a need for much substance.

The results in this text go back to the Kinase Knowledgebase extract (Sharma et al. 2016).

For this experiment, the target named is PIK3CB;PIK3CG;PIK3CD;PIK3CA (human) (UniProt P48736). Briefly: Inhibition of PIK3CA/PIK3CB/PIK3CD/PIK3CG Kinase Activity.
In turn, `COC(=O)CCc1ccc(S(=O)(=O)Nc2nc3ccccc3nc2Nc2cc(OC)ccc2CCO)cc1` came in with a 50% inhibitory concentration (IC50) of 70 nM.
`COc1ccc(CC2C[C@H]3CC[C@@H](C2)N3C)c(Nc2nc3ccccc3nc2NS(=O)(=O)c2cn(C)cn2)c1` (some centres not stated) displayed an IC50 of 110 nM.
The figure for `COc1ccc(CCCO)c(Nc2nc3ccccc3nc2NS(=O)(=O)c2cn(C)c(CS(C)(=O)=O)n2)c1` is 87 nM; for `COC(=O)c1ccc(OC)cc1Nc1nc2ccccc2nc1NS(=O)(=O)c1cn(C)cn1` it is 21 nM; for `COc1ccc(CN2CCN(C)CC2)c(Nc2nc3ccccc3nc2NS(=O)(=O)c2cccnc2)c1` it is 49 nM.
Then `COc1ccc(CCO)c(Nc2nc3ccccc3nc2NS(=O)(=O)c2ccc(CN(C)C)cc2)c1`, with 26 nM; and `COc1ccc(CCO)c(Nc2nc3ccccc3nc2NS(=O)(=O)c2ccc(OCCO)cc2)c1`, with 34 nM.
Then `COc1ccc(CCO)c(Nc2nc3ccccc3nc2NS(=O)(=O)C2CCS(=O)(=O)C2)c1` (configuration not stated), with 86 nM; and `COc1ccc(CC2CCC(O)CC2)c(Nc2nc3ccccc3nc2NS(=O)(=O)c2cccnc2)c1` (configuration not stated), with 20 nM; and `COc1ccc(CCO)c(Nc2nc3ccccc3nc2NS(=O)(=O)c2ccc(F)cc2)c1`, with 23 nM.
`COc1ccc(CCCO)c(Nc2nc3ccccc3nc2NS(=O)(=O)C(C)C)c1`: the 50% inhibitory concentration (IC50) was 72 nM.
The figure for `COc1ccc(CC2CCN(C(=O)CN(C)C)CC2)c(Nc2nc3ccccc3nc2NS(=O)(=O)c2cn(C)cn2)c1` is 100 nM; for `COc1ccc(CCCS(C)(=O)=O)c(Nc2nc3ccccc3nc2NS(=O)(=O)c2cn(C)cn2)c1` it is 50 nM; for `COc1ccc(CCO)c(Nc2nc3ccccc3nc2NS(C)(=O)=O)c1` it is 95 nM.
The figure for `CCCCO.COCCc1ccc(OC)cc1Nc1nc2ccccc2nc1NS(=O)(=O)c1cn(C)cn1` is 83 nM.
The figure for `COc1ccc(CCO)c(Nc2nc3ccccc3nc2NS(=O)(=O)C2CCCCC2)c1` is 57 nM; for `COC(=O)c1ccc(OC)cc1Nc1nc2ccccc2nc1NS(=O)(=O)c1cccnc1` it is 88 nM.
`COc1ccc(CC2CCS(=O)(=O)CC2)c(Nc2nc3ccccc3nc2NS(=O)(=O)c2cn(C)cn2)c1` yielded an IC50 of 30 nM.
Then `COc1ccc(CCO)c(Nc2nc3ccccc3nc2NS(=O)(=O)c2c(C)noc2C)c1`, with 286 nM; and `COc1ccc(CC2CCOCC2)c(Nc2nc3ccccc3nc2NS(=O)(=O)c2ccc(F)cc2)c1`, with 150 nM.
Then `COc1cc(Nc2nc3ccccc3nc2NS(=O)(=O)c2cccnc2)cc(C(=O)N2CCN(C)CC2)c1`, with 3340 nM; and `COc1ccc(CC2CCN(C(C)=O)CC2)c(Nc2nc3ccccc3nc2NS(C)(=O)=O)c1`, with 170 nM; and `COC(=O)c1ccc(OC)cc1Nc1nc2ccccc2nc1NS(C)(=O)=O`, with 1650 nM.
Then `COc1ccc(CCS(C)(=O)=O)c(Nc2nc3ccccc3nc2NS(=O)(=O)c2c(C)noc2C)c1`, with 190 nM; and `CCCS(=O)(=O)Nc1nc2ccccc2nc1Nc1cc(OC)ccc1CCCO`, with 49 nM; and `COc1ccc(C(CO)CO)c(Nc2nc3ccccc3nc2NS(=O)(=O)c2cn(C)cn2)c1`, with 550 nM.
The molecule `COc1ccc(CC2CC(C)(C)N(C)C(C)(C)C2)c(Nc2nc3ccccc3nc2NS(=O)(=O)c2cn(C)cn2)c1` yielded a half-maximal inhibitory concentration (IC50) of 420 nM.
The figure for `COc1cc(Nc2nc3ccccc3nc2NS(C)(=O)=O)cc(C(=O)N2CCOCC2)c1` is 5620 nM; for `COc1ccc(CC2CCOCC2)c(Nc2nc3ccccc3nc2NS(=O)(=O)c2cn(C)cn2)c1` it is 49 nM; for `COc1ccc(CCOC(=O)[C@@H](NC(=O)OCC2c3ccccc3-c3ccccc32)C(C)C)c(Nc2nc3ccccc3nc2NS(=O)(=O)c2cn(C)cn2)c1` it is 1840 nM.
Take `COc1ccc(CCO)c(Nc2nc3ccccc3nc2NS(=O)(=O)CCCS(C)(=O)=O)c1`: the IC50 was determined as 120 nM.
Then `COc1ccc(CC2CCS(=O)(=O)CC2)c(Nc2nc3ccccc3nc2NS(=O)(=O)c2ccc(CN(C)C)cc2)c1`, with 10 nM; and `COc1ccc(CCO)c(Nc2nc3ccccc3nc2NS(=O)(=O)c2ccc(CN3CCC(F)CC3)cc2)c1`, with 43 nM; and `COc1ccc(CC2CCN(S(C)(=O)=O)CC2)c(Nc2nc3ccccc3nc2NS(=O)(=O)c2cn(C)cn2)c1`, with 160 nM.
In turn, `COc1ccc(CC2CCCCC2)c(Nc2nc3ccccc3nc2NS(=O)(=O)c2cccnc2)c1` displayed an IC50 of 490 nM.
The figure for `CCCS(=O)(=O)Nc1nc2ccccc2nc1Nc1cc(OC)ccc1CCS(C)(=O)=O` is 87 nM; for `COc1ccc(CC2CCOCC2)c(Nc2nc3ccccc3nc2NS(C)(=O)=O)c1` it is 130 nM; for `COc1ccc(CCCO)c(Nc2nc3ccccc3nc2NS(C)(=O)=O)c1` it is 64 nM.
The figure for `COCCc1ccc(OC)cc1Nc1nc2ccccc2nc1NS(=O)(=O)C1CCNCC1` is 98 nM.
Molecule `COc1ccc(CCCO)c(Nc2nc3ccccc3nc2NS(=O)(=O)c2cccc(NC(=O)COCc3ccccc3)c2)c1` gave an IC50 of 480 nM.
Then `COc1ccc(CCO)c(Nc2nc3ccccc3nc2NS(=O)(=O)c2cccnc2)c1`, with 40 nM.
The figure for `COc1ccc(CCCO)c(Nc2nc3ccccc3nc2NS(=O)(=O)c2cn(C)c(CN(C)C)n2)c1` is 28 nM; for `COc1ccc(CCCO)c(Nc2nc3ccccc3nc2NS(=O)(=O)C2CCS(=O)(=O)C2)c1` (configuration not stated) it is 130 nM; for `COc1ccc(CCS(C)(=O)=O)c(Nc2nc3ccccc3nc2NS(=O)(=O)C(C)C)c1` it is 160 nM.
Consider `COc1ccc(CCOC(=O)[C@@H](N)C(C)C)c(Nc2nc3ccccc3nc2NS(=O)(=O)c2cn(C)cn2)c1`, for which the IC50 was 100 nM.
The figure for `COc1ccc(CC2CCCC2)c(Nc2nc3ccccc3nc2NS(=O)(=O)c2cn(C)cn2)c1` is 180 nM; for `COc1ccc(CC2CCN(C)CC2)c(Nc2nc3ccccc3nc2NS(C)(=O)=O)c1` it is 110 nM; for `COc1ccc(CC2CCN(C(C)=O)CC2)c(Nc2nc3ccccc3nc2NS(=O)(=O)c2cn(C)cn2)c1` it is 89 nM.
The figure for `COc1ccc(CC2CCOCC2)c(Nc2nc3ccccc3nc2NS(=O)(=O)c2cccnc2)c1` is 27 nM.
Then `COc1ccc(S(=O)(=O)NCCO)c(Nc2nc3ccccc3nc2NS(=O)(=O)CCCS(C)(=O)=O)c1`, with 300 nM; and `COc1ccc(CC2CCN(C(C)=O)CC2)c(Nc2nc3ccccc3nc2NS(=O)(=O)c2cccnc2)c1`, with 51 nM.
For `COCCNC(=O)c1cc(Nc2nc3ccccc3nc2NS(=O)(=O)c2cn(C)cn2)cc(OC)c1`, the IC50 came to 400 nM.
The figure for `COc1ccc(CCCN(C)C)c(Nc2nc3ccccc3nc2NS(=O)(=O)c2cn(C)cn2)c1` is 11 nM; for `COc1ccc(CCO)c(Nc2nc3ccccc3nc2NS(=O)(=O)c2ccc(C)[n+]([O-])c2)c1` it is 106 nM; for `COc1ccc(CCO)c(Nc2nc3ccccc3nc2NS(=O)(=O)CCCSC)c1` it is 75 nM.
As to `CCCS(=O)(=O)Nc1nc2ccccc2nc1Nc1cc(OC)ccc1CCO`, the IC50 stood at 44 nM.
Then `COc1ccc(C(C)C)c(Nc2nc3ccccc3nc2NS(=O)(=O)c2cn(C)cn2)c1`, with 200 nM; and `COc1ccc(CCCO)c(Nc2nc3ccccc3nc2NS(=O)(=O)c2ccc(NC(=O)CN(C)C)cc2)c1`, with 32 nM.
`COc1ccc(CC2CCC(O)CC2)c(Nc2nc3ccccc3nc2NS(=O)(=O)c2ccc(CN(C)C)cc2)c1` (configuration not stated): the IC50 amounted to 26 nM.
Then `COc1ccc(CC(O)CO)c(Nc2nc3ccccc3nc2NS(=O)(=O)c2cn(C)cn2)c1` (configuration not stated), with 120 nM; and `COc1ccc(CCS(C)(=O)=O)c(Nc2nc3ccccc3nc2NS(=O)(=O)CCCSC)c1`, with 140 nM.
The figure for `COc1cc(CN2CCN(C)CC2)cc(Nc2nc3ccccc3nc2NS(=O)(=O)c2cccnc2)c1` is 970 nM; for `COc1cc(Nc2nc3ccccc3nc2NS(=O)(=O)c2cn(C)cn2)cc(C(=O)NCCO)c1` it is 100 nM; for `COc1ccc(CC2CCN(C)CC2)c(Nc2nc3ccccc3nc2NS(=O)(=O)c2cn(C)cn2)c1` it is 43 nM.
The figure for `COc1ccc(CCO)c(Nc2nc3ccccc3nc2NS(=O)(=O)c2cn(C)cn2)c1` is 48 nM; for `CCS(=O)(=O)Nc1nc2ccccc2nc1Nc1cc(OC)ccc1CCS(C)(=O)=O` it is 88 nM.
`COc1ccc(CCS(C)(=O)=O)c(Nc2nc3ccccc3nc2NS(=O)(=O)c2cn(C)cn2)c1` had an IC50 of 84 nM.
Then `COc1ccc(CC2CCCCC2)c(Nc2nc3ccccc3nc2NS(=O)(=O)c2cn(C)cn2)c1`, with 450 nM; and `COc1ccc(CO)c(Nc2nc3ccccc3nc2NS(=O)(=O)c2cn(C)cn2)c1`, with 470 nM.
Then `COc1ccc(CCCO)c(Nc2nc3ccccc3nc2NS(=O)(=O)C2CCNCC2)c1`, with 26 nM; and `CC#N.COc1ccc(CCCO)c(Nc2nc3ccccc3nc2NS(=O)(=O)c2cn(C)cn2)c1`, with 21 nM; and `COc1ccc(CCCO)c(Nc2nc3ccccc3nc2NS(=O)(=O)C2CCN(C(=O)OCc3ccccc3)CC2)c1`, with 720 nM.
Molecule `CCS(=O)(=O)Nc1nc2ccccc2nc1Nc1cc(OC)ccc1CCO` returned a 50% inhibitory concentration (IC50) of 60 nM.
The figure for `COc1ccc(CC2CCCCC2)c(Nc2nc3ccccc3nc2NS(=O)(=O)c2ccc(CN(C)C)cc2)c1` is 760 nM; for `COc1ccc(CCO)c(Nc2nc3ccccc3nc2NS(=O)(=O)c2ccc(C(=O)N(C)C)cc2)c1` it is 250 nM; for `COc1ccc(CCO)c(Nc2nc3ccccc3nc2NS(=O)(=O)c2ccc(C#N)cc2)c1` it is 22 nM.
The figure for `COc1ccc(CC2CCSCC2)c(Nc2nc3ccccc3nc2NS(=O)(=O)c2cn(C)cn2)c1` is 100 nM.
Then `COc1ccc(CCCO)c(Nc2nc3ccccc3nc2NS(=O)(=O)c2cccc(NC(=O)CO)c2)c1`, with 12 nM.
`COc1ccc(CCCO)c(Nc2nc3ccccc3nc2NS(=O)(=O)c2c(C)noc2C)c1`: the IC50 came out at 130 nM.
For `CCS(=O)(=O)Nc1nc2ccccc2nc1Nc1cc(OC)ccc1CCCO`, the IC50 worked out at 59 nM.
The figure for `COc1ccc(CCO)c(Nc2nc3ccccc3nc2NS(=O)(=O)c2ccc(NC(=O)CO)cc2)c1` is 65 nM.
Take `COc1ccc(CCS(C)(=O)=O)c(Nc2nc3ccccc3nc2NS(=O)(=O)CCCS(C)(=O)=O)c1`: the IC50 stood at 350 nM.
